According to patent US20100184596A1, “METHOD FOR THE CONTROL OF WEEDS IN TURF” (SYNGENTA CROP PROTECTION, INC., priority 2007, published 2010):

Legend:
Assay type in all cases: in vivo
Bermudagrass = assay: Phytotoxicity via post emergence spray application (Table B2.5)
Protocol: (§1) The phytotoxicity of the compound of formula I to turfgrass species was tested. The compound was applied via post emergence spray to a range of warm and cool season turfgrass species at various rates and spray treatment treatment regimes. Percentage phytotoxicity assessments were taken at various timepoints.

[1] = tested on: Bermudagrass v. Tifway 419; assay: Phytotoxicity via post emergence spray application (Table B2.3)
Protocol: as §1

[2] = tested on: St. Augustinegrass v. Floratam; assay: Phytotoxicity in combination with safeners, post emergence spray (Table B4.2); details: no safener, 100 g ai/ha
Protocol: The phytotoxicity to turfgrass of the compound of formula I in combination with various safeners was tested. The combinations were applied by post emergence spray application. Percentage phytotoxicity assessments were taken at various timepoints. The safeners tested in these trials were cloquintocet-mexyl, cyprosulfamide, a compound of formula 2.3, and isoxadifen-ethyl.

[3] = tested on: Perennial ryegrass/fine fescue mix; assay: Phytotoxicity via post emergence spray application (Table B2.4)
Protocol: as §1

[4] = tested on: St. Augustinegrass v. Delmar; assay: Phytotoxicity via granule application (Table B3.1)
Protocol: The phytotoxicity of the compound of formula I to turfgrass species was tested. The compound was applied by distribution of granule formulations of formula I, post emergence, to turfgrass species at two rates. All treatments were watered-in 1 day after application. Percentage phytotoxicity assessments were taken at various timepoints.
Two granule formulations were made and tested. Granule A is an inert granule formulation, comprising 99.06 wt % DG Lite 150 granules, 0.14 wt % compound of formula I, 0.50 wt % Sunspray 6N, and 0.30 wt % HiSil 233. The compound of formula I was added to the DG Lite granules while blending in a Continental Rollo-mixer.
Sunspray 6N oil was then sprayed onto the granules, and HiSil added to dry excess liquid and improve granule flowability. The granules were blended in the mixer for 20-30 minutes until homogeneous, and passed through a −12/+60 mesh to remove over and under sized particles.
Granule B is a fertiliser granule formulation, comprising 54.65 wt % urea, 6.63 wt % triple super phosphate, 4.95 wt % potassion chloride, 9.91 wt % huber clay, 7.22 wt % HiSil 233, 0.16 wt % compound of formula I, […] agnique ME 181, 2.07 wt % stepfac 8180, and 11.98 wt % water. […] The remaining HiSil was added and granules dried at 40-60° C., to remove excess liquid. Finally, the granules were passed through a −12/+60 mesh to remove over and under sized particles.

turfgrass = assay: Example B2, conclusion in words; details: spray
Protocol: as §1

[5] = tested on: Hydrocotyle sp. (dollarweed); assay: Example B7, conclusion in words
Protocol: The weed control efficacy of the compound of formula I in combination with various safeners was tested. The combinations were applied by post emergence spray application. Percentage weed control assessments were taken at various timepoints.

## COCCOCc1nc(C(F)(F)F)ccc1C(=O)C1=C(O)C2CCC(C2)C1=O (stereo not shown) [Formula I, 4-Hydroxy-3-[2-(2-methoxyethoxymethyl)-6-trifluoromethylpyridine-3-carbonyl]-bicyclo[3.2.1]oct-3-en-2-one]
Bermudagrass; 1 appl, 140 g ai/ha, 7 DAT
  % phytotoxicity: 38.75%
Bermudagrass; 1 appl, 140 g ai/ha, 14 DAT
  % phytotoxicity: 18.75%
Bermudagrass; 1 appl, 140 g ai/ha, 21 DAT
  % phytotoxicity: 15.00%
Bermudagrass; 1 appl, 140 g ai/ha, 32 DAT
  % phytotoxicity: 13.75%
Bermudagrass; 1 appl, 140 g ai/ha, 35 DAT
  % phytotoxicity: 13.75%
Bermudagrass; 1 appl, 140 g ai/ha, 42 DAT
  % phytotoxicity: 7.50%
Bermudagrass; 1 appl, 140 g ai/ha, 49 DAT
  % phytotoxicity: 6.25%
Bermudagrass; 1 appl, 280 g ai/ha, 7 DAT
  % phytotoxicity: 38.75%
Bermudagrass; 1 appl, 280 g ai/ha, 14 DAT
  % phytotoxicity: 28.75%
Bermudagrass; 1 appl, 280 g ai/ha, 21 DAT
  % phytotoxicity: 12.50%
Bermudagrass; 1 appl, 280 g ai/ha, 32 DAT
  % phytotoxicity: 15.00%
Bermudagrass; 1 appl, 280 g ai/ha, 35 DAT
  % phytotoxicity: 15.00%
Bermudagrass; 1 appl, 280 g ai/ha, 42 DAT
  % phytotoxicity: 8.75%
Bermudagrass; 1 appl, 280 g ai/ha, 49 DAT
  % phytotoxicity: 6.25%
Bermudagrass; 2 appl, 140 g ai/ha, 7 DAT
  % phytotoxicity: 30.00%
Bermudagrass; 2 appl, 140 g ai/ha, 14 DAT
  % phytotoxicity: 26.25%
Bermudagrass; 2 appl, 140 g ai/ha, 21 DAT
  % phytotoxicity: 15.00%
Bermudagrass; 2 appl, 140 g ai/ha, 32 DAT
  % phytotoxicity: 68.75%
Bermudagrass; 2 appl, 140 g ai/ha, 35 DAT
  % phytotoxicity: 35.00%
Bermudagrass; 2 appl, 140 g ai/ha, 42 DAT
  % phytotoxicity: 15.00%
Bermudagrass; 2 appl, 140 g ai/ha, 49 DAT
  % phytotoxicity: 28.75%
Bermudagrass; 2 appl, 280 g ai/ha, 7 DAT
  % phytotoxicity: 42.50%
Bermudagrass; 2 appl, 280 g ai/ha, 14 DAT
  % phytotoxicity: 36.25%
Bermudagrass; 2 appl, 280 g ai/ha, 21 DAT
  % phytotoxicity: 18.75%
Bermudagrass; 2 appl, 280 g ai/ha, 32 DAT
  % phytotoxicity: 75.00%
Bermudagrass; 2 appl, 280 g ai/ha, 35 DAT
  % phytotoxicity: 65.00%
Bermudagrass; 2 appl, 280 g ai/ha, 42 DAT
  % phytotoxicity: 26.25%
Bermudagrass; 2 appl, 280 g ai/ha, 49 DAT
  % phytotoxicity: 30.00%
[1]; 1 appl, 140 g ai/ha, 8 DAT
  % phytotoxicity: 36.25%
[1]; 1 appl, 140 g ai/ha, 14 DAT
  % phytotoxicity: 28.75%
[1]; 1 appl, 140 g ai/ha, 29 DAT
  % phytotoxicity: 1.25%
[1]; 1 appl, 140 g ai/ha, 35 DAT
  % phytotoxicity: 0.00%
[1]; 1 appl, 140 g ai/ha, 43 DAT
  % phytotoxicity: 0.00%
[1]; 1 appl, 140 g ai/ha, 51 DAT
  % phytotoxicity: 0.00%
[1]; 1 appl, 140 g ai/ha, 60 DAT
  % phytotoxicity: 0.00%
[1]; 1 appl, 280 g ai/ha, 8 DAT
  % phytotoxicity: 35.00%
[1]; 1 appl, 280 g ai/ha, 14 DAT
  % phytotoxicity: 52.50%
[1]; 1 appl, 280 g ai/ha, 29 DAT
  % phytotoxicity: 1.25%
[1]; 1 appl, 280 g ai/ha, 35 DAT
  % phytotoxicity: 0.00%
[1]; 1 appl, 280 g ai/ha, 43 DAT
  % phytotoxicity: 0.00%
[1]; 1 appl, 280 g ai/ha, 51 DAT
  % phytotoxicity: 0.00%
[1]; 1 appl, 280 g ai/ha, 60 DAT
  % phytotoxicity: 0.00%
[1]; 2 appl, 140 g ai/ha, 8 DAT
  % phytotoxicity: 26.25%
[1]; 2 appl, 140 g ai/ha, 14 DAT
  % phytotoxicity: 31.25%
[1]; 2 appl, 140 g ai/ha, 29 DAT
  % phytotoxicity: 0.00%
[1]; 2 appl, 140 g ai/ha, 35 DAT
  % phytotoxicity: 30.00%
[1]; 2 appl, 140 g ai/ha, 43 DAT
  % phytotoxicity: 18.75%
[1]; 2 appl, 140 g ai/ha, 51 DAT
  % phytotoxicity: 7.50%
[1]; 2 appl, 140 g ai/ha, 60 DAT
  % phytotoxicity: 0.00%
[1]; 2 appl, 280 g ai/ha, 8 DAT
  % phytotoxicity: 36.25%
[1]; 2 appl, 280 g ai/ha, 14 DAT
  % phytotoxicity: 52.50%
[1]; 2 appl, 280 g ai/ha, 29 DAT
  % phytotoxicity: 3.75%
[1]; 2 appl, 280 g ai/ha, 35 DAT
  % phytotoxicity: 28.75%
[1]; 2 appl, 280 g ai/ha, 43 DAT
  % phytotoxicity: 22.50%
[1]; 2 appl, 280 g ai/ha, 51 DAT
  % phytotoxicity: 8.75%
[1]; 2 appl, 280 g ai/ha, 60 DAT
  % phytotoxicity: 0.00%
[2]; 9 DAT
  % phytotoxicity: 46.70%
[2]; 13 DAT
  % phytotoxicity: 50.00%
[2]; 19 DAT
  % phytotoxicity: 11.70%
[2]; 25 DAT
  % phytotoxicity: 5.00%
[3]; 1 appl, 140 g ai/ha, 6 DAT
  % phytotoxicity: 4.00%
[3]; 1 appl, 140 g ai/ha, 14 DAT
  % phytotoxicity: 18.75%
[3]; 1 appl, 140 g ai/ha, 21 DAT
  % phytotoxicity: 6.75%
[3]; 1 appl, 140 g ai/ha, 28 DAT
  % phytotoxicity: 2.50%
[3]; 1 appl, 140 g ai/ha, 34 DAT
  % phytotoxicity: 0.50%
[3]; 1 appl, 140 g ai/ha, 39 DAT
  % phytotoxicity: 0.00%
[3]; 1 appl, 140 g ai/ha, 49 DAT
  % phytotoxicity: 3.75%
[3]; 1 appl, 280 g ai/ha, 6 DAT
  % phytotoxicity: 4.50%
[3]; 1 appl, 280 g ai/ha, 14 DAT
  % phytotoxicity: 25.00%
[3]; 1 appl, 280 g ai/ha, 21 DAT
  % phytotoxicity: 6.25%
[3]; 1 appl, 280 g ai/ha, 28 DAT
  % phytotoxicity: 1.75%
[3]; 1 appl, 280 g ai/ha, 34 DAT
  % phytotoxicity: 1.25%
[3]; 1 appl, 280 g ai/ha, 39 DAT
  % phytotoxicity: 0.00%
[3]; 1 appl, 280 g ai/ha, 49 DAT
  % phytotoxicity: 0.00%
[3]; 2 appl, 140 g ai/ha, 6 DAT
  % phytotoxicity: 3.00%
[3]; 2 appl, 140 g ai/ha, 14 DAT
  % phytotoxicity: 20.00%
[3]; 2 appl, 140 g ai/ha, 21 DAT
  % phytotoxicity: 6.75%
[3]; 2 appl, 140 g ai/ha, 28 DAT
  % phytotoxicity: 2.75%
[3]; 2 appl, 140 g ai/ha, 34 DAT
  % phytotoxicity: 10.50%
[3]; 2 appl, 140 g ai/ha, 39 DAT
  % phytotoxicity: 8.75%
[3]; 2 appl, 140 g ai/ha, 49 DAT
  % phytotoxicity: 4.25%
[3]; 2 appl, 280 g ai/ha, 6 DAT
  % phytotoxicity: 3.50%
[3]; 2 appl, 280 g ai/ha, 14 DAT
  % phytotoxicity: 28.75%
[3]; 2 appl, 280 g ai/ha, 21 DAT
  % phytotoxicity: 11.00%
[3]; 2 appl, 280 g ai/ha, 28 DAT
  % phytotoxicity: 17.50%
[3]; 2 appl, 280 g ai/ha, 34 DAT
  % phytotoxicity: 22.50%
[3]; 2 appl, 280 g ai/ha, 39 DAT
  % phytotoxicity: 23.75%
[3]; 2 appl, 280 g ai/ha, 49 DAT
  % phytotoxicity: 10.00%
[4]; Granule A (inert), 112 g ai/ha, 7 DAT
  % phytotoxicity: 8.30%
[4]; Granule A (inert), 112 g ai/ha, 20 DAT
  % phytotoxicity: 0.00%
[4]; Granule A (inert), 280 g ai/ha, 7 DAT
  % phytotoxicity: 20.00%
[4]; Granule A (inert), 280 g ai/ha, 11 DAT
  % phytotoxicity: 5.70%
[4]; Granule A (inert), 280 g ai/ha, 15 DAT
  % phytotoxicity: 3.30%
[4]; Granule B (fertiliser), 112 g ai/ha, 7 DAT
  % phytotoxicity: 23.30%
[4]; Granule B (fertiliser), 112 g ai/ha, 11 DAT
  % phytotoxicity: 10.00%
[4]; Granule B (fertiliser), 112 g ai/ha, 15 DAT
  % phytotoxicity: 5.00%
[4]; Granule B (fertiliser), 280 g ai/ha, 11 DAT
  % phytotoxicity: 20.00%
turfgrass; applied at low rates
  phytotoxicity to turfgrass, in words: levels of phytotoxicity to turfgrass are acceptable
turfgrass; cool season versus warm season species
  phytotoxicity by turfgrass type, in words: lower on cool season turfgrass species
[5]
  herbicidal efficacy in presence of a safener, in words: does not significantly effect the herbicidal efficacy
